These results are taken from patent US20240139260A1, “MICROBIAL STRAIN COMPOSITIONS” (MICROBIAL DISCOVERY GROUP, LLC, priority 2022, published 2024).

In brackets after ≈: the same amount, converted by molar mass. Like-named read-outs stand apart in the source and are kept apart here.

In assay [1] the test system is Bacillus strain (NRRL No. B-68053). Kind of assay: Antibiotic resistance, Minimum Inhibitory Concentrations (MICs) Against Medical Antibiotics. The assay is classed as cell-based, Bacillus subtilis. An excerpt:
The inventors have assessed resistance phenotypically. A bacterial strain is defined by EFSA as susceptible when its growth is inhibited at concentration of a specific antibiotic that is equal to or lower than the established cut-off value for that particular species. A bacterial strain is defined as resistant when it is able to grow at a concentration of a specific antibiotic that is higher than the established cut-off. We utilized both the EFSA and CLSI guidelines for determining susceptibility and resistance interpreted through their defined cut-off values.

For assay [2], the system named is Bacillus strain BC1 (NRRL No. B-67744). Nature of the assay: Antibiotic resistance, phenotypic MICs of medical antibiotics. The assay is classed as cell-based, Bacillus coagulans. Conditions: for MIC: Bacillus.
The subject of assay [3] is Bacillus strain (NRRL No. B-68054). Kind of assay: Antibiotic resistance, Minimum Inhibitory Concentrations (MICs) Against Medical Antibiotics. The format is cell-based, Bacillus subtilis. The text has this: The inventors have assessed resistance phenotypically. A bacterial strain is defined by EFSA as susceptible when its growth is inhibited at concentration of a specific antibiotic that is equal to or lower than the established cut-off value for that particular species. A bacterial strain is defined as resistant when it is able to grow at a concentration of a specific antibiotic that is higher than the established cut-off. The inventors utilized both the EFSA and CLSI guidelines for determining susceptibility and resistance interpreted through their defined cut-off values.

The mark [4] stands for this setting: Bacillus, NRRLB68053; read-out: NRRL No. B-68053 ug/mL (triplicate), Minimum Inhibitory Concentration.
Setting [5] is: NRRLB67744, MIC of the antibiotic against the strain, triplicate, read-out: NRRL No. B-67744 ug/ml (triplicate).
[6] abbreviates: Bacillus, NRRLB68054; read-out: NRRL No. B-68054 ug/mL (triplicate), Minimum Inhibitory Concentration.
The mark [7] stands for this setting: Bacillus, NRRLB68053, read-out: NRRL No. B-68053 ug/mL (triplicate), Minimum Inhibitory Concentration.
Setting [8] is: Bacillus, NRRLB68054, read-out: NRRL No. B-68054 ug/mL (triplicate), Minimum Inhibitory Concentration.

As to `NC[C@H]1O[C@H](O[C@H]2[C@H](O)[C@@H](O[C@H]3O[C@H](CO)[C@@H](O)[C@H](N)[C@H]3O)[C@H](N)C[C@@H]2N)[C@H](O)[C@@H](O)[C@@H]1O` [Kanamycin], the MIC in assay [1] (setting [4]) is 0.75 µg/mL (≈ 1.55 µM); in assay [2] (setting [5]), 0.016 µg/mL; in assay [3] (setting [6]), 0.75 µg/mL (≈ 1.55 µM).

For `CCC[C@@H]1C[C@@H](C(=O)N[C@@H]([C@H]2O[C@H](SC)[C@H](O)[C@@H](O)[C@H]2O)[C@H](C)Cl)N(C)C1` [Clindamycin], the MIC in assay [1] (setting [4]) worked out at 1 µg/mL (≈ 2.35 µM); in assay [2] (setting [5]), 0.016 µg/mL; in assay [3] (setting [6]), 0.5 µg/mL (≈ 1.18 µM).

As for `O=C(O)c1cn(C2CC2)c2cc(N3CCNCC3)c(F)cc2c1=O` [Ciprofloxacin], the MIC in assay [1] (setting [4]) stood at 0.94 µg/mL (≈ 2.84 µM).

Turning to `O=C(N[C@H](CO)[C@H](O)c1ccc([N+](=O)[O-])cc1)C(Cl)Cl` [Chloramphenicol], the MIC in assay [1] (setting [4]) was found to be 3 µg/mL (≈ 9.28 µM); in assay [2] (setting [5]), 0.016 µg/mL; in assay [3] (setting [6]), 1.5 µg/mL (≈ 4.64 µM).

On to `CN(C)[C@@H]1C(O)=C(C(N)=O)C(=O)[C@@]2(O)C(O)=C3C(=O)c4c(O)cccc4[C@@](C)(O)[C@H]3C[C@@H]12` [Tetracycline], for which the results for the MIC in assay [1] (setting [4]), in assay [2] (setting [5]) and in assay [3] (setting [6]) were 12 µg/mL (≈ 27 µM), 1.25 µg/mL and 6 µg/mL (≈ 13.5 µM), respectively.

On to `CN(C)c1cc(NC(=O)CNC(C)(C)C)c(O)c2c1C[C@H]1C[C@H]3[C@H](N(C)C)C(O)=C(C(N)=O)C(=O)[C@@]3(O)C(O)=C1C2=O` [Tigecycline], for which the MIC in assay [1] (setting [7]) amounted to 0.094 µg/mL (≈ 0.161 µM); in assay [2] (NRRLB67744, read-out: NRRL No. B-67744 ug/ml (triplicate)), 0.064 µg/mL (≈ 0.109 µM); in assay [3] (setting [8]), 0.064 µg/mL (≈ 0.109 µM).

For `[H]/N=C(/N)N[C@H]1[C@H](O)[C@@H](O)[C@H](O[C@@H]2O[C@@H](C)[C@](O)(C=O)[C@H]2O[C@@H]2O[C@@H](CO)[C@H](O)[C@@H](O)[C@@H]2NC)[C@@H](N/C(N)=N\[H])[C@@H]1O` [Streptomycin], the MIC came to 8 µg/mL (≈ 13.8 µM) in assay [1] (setting [4]), 1.5 µg/mL in assay [2] (setting [5]) and 4 µg/mL (≈ 6.88 µM) in assay [3] (setting [6]).

Consider `CO[C@H]1/C=C/O[C@@]2(C)Oc3c(C)c(O)c4c(O)c(c(/C=N/N5CCN(C)CC5)c(O)c4c3C2=O)NC(=O)/C(C)=C\C=C\[C@H](C)[C@H](O)[C@@H](C)[C@@H](O)[C@@H](C)[C@H](OC(C)=O)[C@@H]1C` [Rifampin], for which the MIC in assay [1] (setting [4]) was 0.25 µg/mL (≈ 0.304 µM); in assay [2] (setting [5]), 0.25 µg/mL; in assay [3] (setting [6]), 0.5 µg/mL (≈ 0.608 µM).

Turning to Gentamicin, in assay [1] (triplicate), the “NRRL No. B-68053 ug/mL (triplicate), Minimum Inhibitory Concentration” value is 0.094 µg/mL. Also, in assay [2] (MIC of the antibiotic against the strain, triplicate), the “NRRL No. B-67744 ug/ml (triplicate)” value was 0.023 µg/mL. In assay [3] (triplicate), the “NRRL No. B-68054 ug/mL (triplicate), Minimum Inhibitory Concentration” value stood at 0.125 µg/mL.

Take `CN[C@H](CC(C)C)C(=O)N[C@H]1C(=O)N[C@@H](CC(N)=O)C(=O)N[C@H]2C(=O)N[C@H]3C(=O)N[C@H](C(=O)N[C@H](C(=O)O)c4cc(O)cc(O)c4-c4cc3ccc4O)[C@H](O)c3ccc(c(Cl)c3)Oc3cc2cc(c3O[C@@H]2O[C@H](CO)[C@@H](O)[C@H](O)[C@H]2O[C@H]2C[C@](C)(N)[C@H](O)[C@H](C)O2)Oc2ccc(cc2Cl)[C@H]1O` [Vancomycin]: the MIC was determined as 0.5 µg/mL (≈ 0.345 µM) in assay [1] (setting [7]), 0.38 µg/mL in assay [2] (setting [5]) and 0.75 µg/mL (≈ 0.518 µM) in assay [3] (setting [8]).

In the case of `CC[C@H]1OC(=O)[C@H](C)[C@@H](O[C@H]2C[C@@](C)(OC)[C@@H](O)[C@H](C)O2)[C@H](C)[C@@H](O[C@@H]2O[C@H](C)C[C@H](N(C)C)[C@H]2O)[C@](C)(O)C[C@@H](C)C(=O)[C@H](C)[C@@H](O)[C@]1(C)O` [Erythromycin], the MIC in assay [1] (setting [4]) amounted to 0.064 µg/mL (≈ 0.0872 µM); in assay [2] (setting [5]), 0.125 µg/mL; in assay [3] (setting [6]), 0.047 µg/mL (≈ 0.064 µM).

As to `CC(=O)NC[C@H]1CN(c2ccc(N3CCOCC3)c(F)c2)C(=O)O1` [Linezolid], the values for the MIC in assay [1] (setting [4]), in assay [2] (setting [5]) and in assay [3] (setting [6]) were 1 µg/mL (≈ 2.96 µM), 0.75 µg/mL and 0.25 µg/mL (≈ 0.741 µM), respectively.
